Results on eight compounds are retold here after patent US11459306B2, “Compounds, compositions, and methods for treating T-cell acute lymphoblastic leukemia” (The Trustees of Columbia University in the City of New York, priority 2017, dated 2022).

Data set [1] relates to mouse PTEN null/NOTCH activated T-ALL cell line. Description: Gene set enrichment analysis of murine T-ALL disease signature after drug treatment. The format is cell-based. To be noted: GSEA of T-ALL disease signature; 1 μM, 48 hours. On the procedure:
This was also accomplished by generating gene expression signatures to assess the effects of drug treatment. Global gene expression profiles were obtained in triplicate using a mouse PTEN null/NOTCH activated T-ALL cell line driven by over expression of the transcription factor LMO2. […] Tumor cells were cultured in the presence of CAL-130 (2.5 μM) or the gamma-secretase inhibitor (GSI) Compound E (1 μM). Compound E blocks the activity of NOTCH1, which is also believed to support T-ALL tumor formation, proliferation, and survival. Drug treated cells were harvested at time points known to affect the expression of the proto-oncogene cMyc (12 hours and 48 hours, respectively), a master regulator of cell growth, metabolism and survival. A Venn diagram was created to illustrate the overlap in genes altered by either PI3Kγ/δ blockade (red circle) or GSI (green circle) using a false discovery rate (FDR) of 0.0005 as cut off (FIG. 1A). Of note, ten-fold more genes were affected following PI3Kγ/δ blockade, including the majority (˜62%) of genes altered by GSI monotherapy, a highly significant finding (Fisher's exact test, P<2.2×10^−16).
A murine T-ALL disease signature was further defined by ranking all genes based on their differential expression in T-ALL samples compared to wild type murine thymocytes. […]

For another data set, the target named is T1, PIK3CB (PI3Kβ) (Homo sapiens, UniProt P42338).
T1 construct: purchased DiscoverX (KINOMEscan); host or cells: E. coli BL21-derived host (T7 phage) or HEK-293
T1 sequence (P42338 whole entry): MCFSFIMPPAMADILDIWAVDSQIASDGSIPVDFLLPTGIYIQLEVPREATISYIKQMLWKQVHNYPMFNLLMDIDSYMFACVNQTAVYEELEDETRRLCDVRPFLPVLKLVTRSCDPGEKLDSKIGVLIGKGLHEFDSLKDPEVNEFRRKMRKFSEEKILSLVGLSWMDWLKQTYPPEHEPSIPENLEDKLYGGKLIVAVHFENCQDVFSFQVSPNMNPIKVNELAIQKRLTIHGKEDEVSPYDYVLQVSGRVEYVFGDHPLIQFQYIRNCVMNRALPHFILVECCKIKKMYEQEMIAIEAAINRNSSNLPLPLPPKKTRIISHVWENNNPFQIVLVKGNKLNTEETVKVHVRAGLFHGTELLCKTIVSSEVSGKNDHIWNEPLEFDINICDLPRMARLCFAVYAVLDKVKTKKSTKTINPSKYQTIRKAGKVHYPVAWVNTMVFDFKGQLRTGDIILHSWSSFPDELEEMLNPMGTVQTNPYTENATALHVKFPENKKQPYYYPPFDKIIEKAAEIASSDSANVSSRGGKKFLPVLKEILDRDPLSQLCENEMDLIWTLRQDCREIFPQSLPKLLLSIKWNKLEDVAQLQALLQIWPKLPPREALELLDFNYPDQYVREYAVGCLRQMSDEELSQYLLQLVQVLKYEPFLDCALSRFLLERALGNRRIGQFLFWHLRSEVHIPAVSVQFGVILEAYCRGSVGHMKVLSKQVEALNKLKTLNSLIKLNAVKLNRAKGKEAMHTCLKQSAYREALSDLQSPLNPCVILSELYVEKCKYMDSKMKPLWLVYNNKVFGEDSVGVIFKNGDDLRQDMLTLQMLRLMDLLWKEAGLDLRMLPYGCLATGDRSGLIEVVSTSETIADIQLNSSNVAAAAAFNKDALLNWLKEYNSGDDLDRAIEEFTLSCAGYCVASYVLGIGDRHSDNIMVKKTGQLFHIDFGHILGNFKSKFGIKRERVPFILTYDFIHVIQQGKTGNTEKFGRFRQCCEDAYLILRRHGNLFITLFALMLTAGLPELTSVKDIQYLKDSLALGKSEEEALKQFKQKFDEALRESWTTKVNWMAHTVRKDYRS
Description: KINOMEscan competition binding assay (DiscoverX). Conditions: DiscoveRx gene symbol PIK3CB (PI3Kβ). On the procedure:
(§1) The compounds were tested using KINOMEscan™ (DiscoverX), which is based on a competition binding assay that quantitatively measures the ability of a compound to compete with an immobilized, active-site directed ligand. The assay is performed by combining three components: DNA-tagged kinase; immobilized ligand; and a test compound. The ability of the test compound to compete with the immobilized ligand is measured via quantitative PCR of the DNA tag.
(§2) For most assays, kinase-tagged T7 phage strains were prepared in an E. coli host derived from the BL21 strain. E. coli were grown to log-phase and infected with T7 phage and incubated with shaking at 32° C. until lysis. The lysates were centrifuged and filtered to remove cell debris. The remaining kinases were produced in HEK-293 cells and subsequently tagged with DNA for qPCR detection. Streptavidin-coated magnetic beads were treated with biotinylated small molecule ligands for 30 minutes at room temperature to generate affinity resins for kinase assays. The liganded beads were blocked with excess biotin and washed with blocking buffer (SeaBlock (Pierce), 1% BSA, 0.05% Tween 20, 1 mM DTT) to remove unbound ligand and to reduce non-specific binding. Binding reactions were assembled by combining kinases, liganded affinity beads, and test compounds in 1× binding buffer (20% SeaBlock, 0.17×PBS, 0.05% Tween 20, 6 mM DTT). Test compounds were prepared as 111× stocks in 100% DMSO. Kds were determined using an 11-point 3-fold compound dilution series with three DMSO control points. All compounds for Kd measurements are distributed by acoustic transfer (non-contact dispensing) in 100% DMSO. The compounds were then diluted directly into the assays such that the final concentration of DMSO was 0.9%. All reactions performed in polypropylene 384-well plate. Each was a final volume of 0.02 ml. The assay plates were incubated at room temperature with shaking for 1 hour and the affinity beads were washed with wash buffer (1×PBS, 0.05% Tween 20). The beads were then re-suspended in elution buffer (1×PBS, 0.05% Tween 20, 0.5 μM non-biotinylated affinity ligand) and incubated at room temperature with shaking for 30 minutes. The kinase concentration in the eluates was measured by qPCR.
(§3) An 11-point 3-fold serial dilution of each test compound was prepared in 100% DMSO at 100× final test concentration and subsequently diluted to 1× in the assay (final DMSO concentration=1%). Most Kds were determined using a compound top concentration=30,000 nM. If the initial Kd determined was <0.5 nM (the lowest concentration tested), the measurement was repeated with a serial dilution starting at a lower top concentration.
(§4) Binding constants (Kds) were calculated with a standard dose-response curve using the Hill equation: […]
(§5) The Hill Slope was set to −1. Curves were fitted using a non-linear least square fit with the Levenberg-Marquardt algorithm.

The target of the next data set is T2, PIK3CG (Homo sapiens, UniProt P48736).
T2 construct: purchased DiscoverX (KINOMEscan); host or cells: E. coli BL21-derived host (T7 phage) or HEK-293
T2 sequence (P48736 whole entry): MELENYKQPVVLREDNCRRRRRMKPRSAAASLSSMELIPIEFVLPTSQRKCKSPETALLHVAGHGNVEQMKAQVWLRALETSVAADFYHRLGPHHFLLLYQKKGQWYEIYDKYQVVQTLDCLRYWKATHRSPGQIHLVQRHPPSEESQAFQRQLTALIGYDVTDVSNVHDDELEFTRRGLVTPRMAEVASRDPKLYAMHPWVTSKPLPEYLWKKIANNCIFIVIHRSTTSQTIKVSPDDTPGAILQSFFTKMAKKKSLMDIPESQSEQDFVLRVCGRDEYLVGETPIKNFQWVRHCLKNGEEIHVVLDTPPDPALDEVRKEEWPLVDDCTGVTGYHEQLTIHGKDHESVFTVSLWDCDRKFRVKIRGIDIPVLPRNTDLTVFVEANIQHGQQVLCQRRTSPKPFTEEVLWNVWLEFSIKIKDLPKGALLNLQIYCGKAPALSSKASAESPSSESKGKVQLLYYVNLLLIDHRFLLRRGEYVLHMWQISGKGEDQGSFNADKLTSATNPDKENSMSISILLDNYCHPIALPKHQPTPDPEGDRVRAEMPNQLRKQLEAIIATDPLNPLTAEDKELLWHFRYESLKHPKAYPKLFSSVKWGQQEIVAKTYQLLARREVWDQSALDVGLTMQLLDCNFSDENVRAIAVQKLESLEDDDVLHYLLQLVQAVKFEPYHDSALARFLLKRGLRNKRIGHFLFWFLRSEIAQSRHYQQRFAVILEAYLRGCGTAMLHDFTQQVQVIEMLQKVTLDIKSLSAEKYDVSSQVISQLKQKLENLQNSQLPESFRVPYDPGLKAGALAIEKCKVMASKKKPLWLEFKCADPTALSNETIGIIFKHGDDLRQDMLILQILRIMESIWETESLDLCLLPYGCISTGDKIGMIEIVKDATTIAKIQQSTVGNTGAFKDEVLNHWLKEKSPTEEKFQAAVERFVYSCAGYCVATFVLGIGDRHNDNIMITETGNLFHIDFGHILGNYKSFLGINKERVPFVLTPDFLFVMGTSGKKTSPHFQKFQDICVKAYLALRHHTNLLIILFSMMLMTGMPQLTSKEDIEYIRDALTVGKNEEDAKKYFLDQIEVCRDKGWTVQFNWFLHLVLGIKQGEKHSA
Put plainly: KINOMEscan competition binding assay (DiscoverX). To be noted: DiscoveRx gene symbol PIK3CG (b251 prints: PI3Kδ). On the procedure:
as §1, §2, §3, §4, §5

The target of a further data set is T3, PIK3CA (PI3Kα) (Homo sapiens, UniProt P42336).
T3 construct: purchased DiscoverX (KINOMEscan); host or cells: E. coli BL21-derived host (T7 phage) or HEK-293
T3 sequence (P42336 whole entry): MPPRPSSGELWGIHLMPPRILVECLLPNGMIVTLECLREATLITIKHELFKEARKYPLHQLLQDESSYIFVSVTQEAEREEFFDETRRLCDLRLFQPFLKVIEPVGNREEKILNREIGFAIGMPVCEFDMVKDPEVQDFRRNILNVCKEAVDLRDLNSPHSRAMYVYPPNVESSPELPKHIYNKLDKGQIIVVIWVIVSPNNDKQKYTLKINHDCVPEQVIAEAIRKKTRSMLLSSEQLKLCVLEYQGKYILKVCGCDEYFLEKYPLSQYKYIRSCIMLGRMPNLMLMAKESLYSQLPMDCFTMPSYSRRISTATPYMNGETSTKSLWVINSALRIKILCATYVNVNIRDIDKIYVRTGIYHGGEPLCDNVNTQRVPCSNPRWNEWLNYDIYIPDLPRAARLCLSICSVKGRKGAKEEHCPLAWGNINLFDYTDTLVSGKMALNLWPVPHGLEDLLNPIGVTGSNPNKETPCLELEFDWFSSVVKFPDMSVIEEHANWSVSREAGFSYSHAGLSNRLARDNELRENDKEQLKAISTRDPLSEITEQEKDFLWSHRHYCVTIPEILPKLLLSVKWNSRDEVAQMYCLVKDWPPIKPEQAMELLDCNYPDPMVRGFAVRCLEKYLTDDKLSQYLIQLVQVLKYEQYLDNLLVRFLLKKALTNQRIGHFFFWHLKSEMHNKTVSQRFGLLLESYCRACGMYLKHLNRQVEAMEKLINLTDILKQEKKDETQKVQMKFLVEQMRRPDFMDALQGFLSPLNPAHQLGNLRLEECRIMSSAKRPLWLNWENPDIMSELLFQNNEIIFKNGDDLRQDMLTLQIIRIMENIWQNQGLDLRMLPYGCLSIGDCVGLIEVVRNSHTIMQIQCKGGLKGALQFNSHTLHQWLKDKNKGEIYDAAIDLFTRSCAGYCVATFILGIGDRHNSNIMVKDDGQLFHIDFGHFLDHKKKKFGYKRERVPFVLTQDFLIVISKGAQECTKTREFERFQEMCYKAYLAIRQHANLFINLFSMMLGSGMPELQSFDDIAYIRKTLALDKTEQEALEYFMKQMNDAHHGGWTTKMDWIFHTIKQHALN
Description: KINOMEscan competition binding assay (DiscoverX). Conditions: DiscoveRx gene symbol PIK3CA (PI3Kα). On the procedure: as §1, §2, §3, §4, §5

The target in another data set is T4, PIK3CD (Homo sapiens, UniProt O00329).
T4 construct: purchased DiscoverX (KINOMEscan); host or cells: E. coli BL21-derived host (T7 phage) or HEK-293
T4 sequence (O00329 1-1044): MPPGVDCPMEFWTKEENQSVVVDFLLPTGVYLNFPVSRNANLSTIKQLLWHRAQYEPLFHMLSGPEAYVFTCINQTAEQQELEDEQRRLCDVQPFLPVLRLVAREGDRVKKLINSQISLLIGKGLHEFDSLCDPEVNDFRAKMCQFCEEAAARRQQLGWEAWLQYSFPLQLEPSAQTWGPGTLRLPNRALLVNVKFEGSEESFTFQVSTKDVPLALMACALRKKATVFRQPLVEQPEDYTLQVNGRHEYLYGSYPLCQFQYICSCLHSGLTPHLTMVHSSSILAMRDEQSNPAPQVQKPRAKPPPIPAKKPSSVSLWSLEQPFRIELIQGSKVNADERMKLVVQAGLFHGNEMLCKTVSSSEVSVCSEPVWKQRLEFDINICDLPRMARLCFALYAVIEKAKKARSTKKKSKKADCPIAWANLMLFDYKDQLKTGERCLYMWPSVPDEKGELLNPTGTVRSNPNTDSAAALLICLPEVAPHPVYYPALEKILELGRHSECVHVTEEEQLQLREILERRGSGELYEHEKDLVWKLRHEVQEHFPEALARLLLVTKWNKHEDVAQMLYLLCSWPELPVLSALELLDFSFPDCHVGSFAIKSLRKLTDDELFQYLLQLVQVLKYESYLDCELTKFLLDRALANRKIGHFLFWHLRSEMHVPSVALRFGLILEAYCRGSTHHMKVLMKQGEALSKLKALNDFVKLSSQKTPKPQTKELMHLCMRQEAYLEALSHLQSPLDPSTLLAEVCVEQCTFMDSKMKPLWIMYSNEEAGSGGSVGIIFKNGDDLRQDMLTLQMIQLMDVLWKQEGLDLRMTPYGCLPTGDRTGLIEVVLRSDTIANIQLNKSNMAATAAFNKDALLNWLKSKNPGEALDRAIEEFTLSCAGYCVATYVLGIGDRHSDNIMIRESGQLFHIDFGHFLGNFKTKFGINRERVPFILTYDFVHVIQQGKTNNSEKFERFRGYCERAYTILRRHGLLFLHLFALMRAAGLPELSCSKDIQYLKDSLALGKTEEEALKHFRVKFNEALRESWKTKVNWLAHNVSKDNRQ
Description: KINOMEscan competition binding assay (DiscoverX). Conditions: DiscoveRx gene symbol PIK3CD (b251 prints: PI3Kγ). On the procedure:
as §1, §2, §3, §4, §5

Data set [2] can be described thus: Pharmacokinetics relative to CAL-130. Type of data set: in vivo.
In another data set the test system is T-ALL cell line. Put plainly: T-ALL cell viability / cell death. The format is cell-based, murine. On the procedure: Compounds DWL-PI3K-1, DWL-PI3K-2, DWL-PI3K-3, DWL-PI3K-4, DWL-PI3K-5, DWL-PI3K-6 and DWL-PI3K-7, and reference compounds CAL-130, tenalisib, duvelisib were evaluated for efficacy (cell viability by measuring ATP (CellTiter-Glo) or propidium iodide (PI) uptake) against a number of cancer cells, including LMO-2-007, OCI-LY-10, HH, H9, PF382 and CCRF-CEM.

The subject of data set [3] is murine PTEN null T-ALL cell line lacking both p110γ and p110δ catalytic domains. Put plainly: Killing of T-ALL cell line lacking p110γ and p110δ. Conditions: selectivity control line. Type of data set: cell-based. An excerpt: Compounds described herein also appear to be selective for p110 catalytic domains of PI3Kγ and PI3Kδ as treatment, for example, of a T-ALL cell line lacking these two p110 isoforms results in limited cell killing.

The test system of a further data set is T-ALL. Description: Tumor burden and survival of mice with T-ALL. Type of data set: in vivo.

Regarding `C[C@H](NC(=O)Cc1cc(F)cc(F)c1)C(=O)N[C@H]1N=C(c2ccccc2)c2ccccc2N(C)C1=O` [Compound E], the “normalized enrichment score (NES)” value in data set [1] is reported as −2.6.

`Cc1ccccc1-n1c([C@H](C)Nc2nc(N)nc(N)c2C#N)nc2cccc(C)c2c1=O` [DWL-PI3K-1, (S)-2,4-diamino-6-((1-(5-methyl-4-oxo-3-(o-tolyl)-3,4-dihydroquinazolin-2-yl)ethyl)amino)pyrimidine-5-carbonitrile]: the equilibrium dissociation constant (Kd) at PIK3CB (PI3Kβ) worked out at 0.92 nM; on PIK3CG, 0.2 nM; at PIK3CA (PI3Kα), 20 nM; at PIK3CD, 0.39 nM. Further, in [2], the pharmacokinetics result is “better pharmacokinetics”. The “amount needed relative to CAL-130 to achieve a similar reduction in tumor cell survival” value with T-ALL cell line is “about 10 fold less”.

On to `Cc1ccccc1-n1c([C@H](C)Nc2nc(N)nc(C)c2C#N)nc2cccc(C)c2c1=O` [DWL-PI3K-2, (S)-2-amino-4-methyl-6-((1-(5-methyl-4-oxo-3-(o-tolyl)-3,4-dihydroquinazolin-2-yl)ethyl)amino)pyrimidine-5-carbonitrile], for which the Kd on PIK3CB (PI3Kβ) was 4.3 nM; at PIK3CG it was 0.62 nM; at PIK3CA (PI3Kα), 53 nM; at PIK3CD, 0.62 nM. In data set [2], the pharmacokinetics result is “better pharmacokinetics”. In the data set on T-ALL cell line, the “amount needed relative to CAL-130 to achieve a similar reduction in tumor cell survival” value is “about 10 fold less”.

Turning to `Cc1nc(N)nc(N[C@@H](C)c2cc3cccc(Cl)c3c(=O)n2-c2ccccc2)c1C#N` [DWL-PI3K-4, (S)-2-amino-4-((1-(8-chloro-1-oxo-2-phenyl-1,2-dihydroisoquinolin-3-yl)ethyl)amino)-6-methylpyrimidine-5-carbonitrile], the Kd on PIK3CB (PI3Kβ) was found to be 0.15 nM; at PIK3CG it was 0.089 nM; on PIK3CA (PI3Kα), 2.2 nM; on PIK3CD it was 0.042 nM. The pharmacokinetics entry in data set [2] is “better pharmacokinetics”. Further, the “efficacy in inducing T-ALL cell death relative to CAL-130” value in the data set with T-ALL cell line (cultured T-ALL cells) is reported as “greater efficacy than CAL-130”. For the same compound, the “amount needed relative to CAL-130 to achieve a similar reduction in tumor cell survival” value in the data set on T-ALL cell line was “about 10 fold less”. For the same compound, the “cell killing of T-ALL cell line lacking p110γ and p110δ” value in [3] is reported as “limited killing”.

In the case of `C[C@H](Nc1nc(N)nc(N)c1C#N)c1cc2cccc(Cl)c2c(=O)n1-c1cc(F)cc(F)c1` [DWL-PI3K-5, (S)-2,4-diamino-6-(1-(8-chloro-2-(3,5-difluorophenyl)-1-oxo-1,2-dihydroisoquinolin-3-yl)ethylamino)pyrimidine-5-carbonitrile], the Kd on PIK3CB (PI3Kβ) was 1.4 nM; at PIK3CG it was 0.38 nM; at PIK3CA (PI3Kα) it was 30 nM; at PIK3CD it was 0.12 nM. Also, in data set [2], the pharmacokinetics entry is recorded as “better pharmacokinetics”. Further, in the data set with T-ALL cell line, the “amount needed relative to CAL-130 to achieve a similar reduction in tumor cell survival” value is given as “about 10 fold less”.

On to `C[C@H](Nc1nc(N)nc(N)c1C#N)c1cc2cccc(Cl)c2c(=O)n1-c1cccc(F)c1` [DWL-PI3K-6, (S)-2,4-diamino-6-((1-(8-chloro-2-(3-fluorophenyl)-1-oxo-1,2-dihydroisoquinolin-3-yl)ethyl)amino)pyrimidine-5-carbonitrile], for which the Kd amounted to 0.46 nM at PIK3CB (PI3Kβ), 0.27 nM at PIK3CG, 10 nM at PIK3CA (PI3Kα) and 0.11 nM on PIK3CD. Moreover, the pharmacokinetics result in data set [2] is recorded as “better pharmacokinetics”. For the same compound, in the data set with T-ALL cell line, the “amount needed relative to CAL-130 to achieve a similar reduction in tumor cell survival” value was “about 10 fold less”.

Turning to `[2H]c1c([2H])c([2H])c(-n2c([C@H](C)Nc3nc(N)nc(N)c3C#N)cc3cccc(Cl)c3c2=O)c([2H])c1[2H]` [DWL-PI3K-7, (S)-2,4-diamino-6-((1-(8-chloro-1-oxo-2-(phenyl-d5)-1,2-dihydroisoquinolin-3-yl)ethyl)amino)pyrimidine-5-carbonitrile], the Kd stood at 0.3 nM at PIK3CB (PI3Kβ), 0.17 nM on PIK3CG, 6.1 nM at PIK3CA (PI3Kα) and 0.12 nM on PIK3CD. In data set [2], the pharmacokinetics entry is recorded as “better pharmacokinetics”. Moreover, the “amount needed relative to CAL-130 to achieve a similar reduction in tumor cell survival” value in the data set with T-ALL cell line was “about 10 fold less”. In addition, in data set [3], the “cell killing of T-ALL cell line lacking p110γ and p110δ” value is reported as “limited killing effect”.

Turning to `C[C@H](Nc1ncnc2nc[nH]c12)c1cc2cccc(Cl)c2c(=O)n1-c1ccccc1` [IPI-145], the “effect on tumor burden and survival” value in the data set with T-ALL is reported as “not as effective in reducing tumor burden or in prolonging overall survival”. The mean survival in the data set on T-ALL (30 mg/kg tid) is given as 18 days.

The term Kd denotes the constant that tells how readily two partners part at equilibrium. Lower therefore signals a tighter complex.
